The nature of data set [1]: Recrystallization inhibition by surfactants (solvent shift supersaturation). The format is physicochemical. The following applies: 180 min. Here is the method:
The solvent shift method was used to create supersaturation. […] The solution was mixed at 50 r/min and 37 °C. A 3 mL sample of the solution was obtained at predetermined time intervals for measurement and supplemented with an equal volume of fresh medium. […] All tests were performed in triplicate.
Particle size measurements were performed at different time points using a Malvern Nano ZSP instrument (Malvern, UK). All tests were performed at 25 °C.

Data set [2] can be described thus: Solubility in aqueous solutions of different surfactants (0.2% m/v). The settings on record: vs no surfactant.
On the set-up of data set [3]: method as in PMID 36015346. The following applies: cited from earlier work.
The nature of data set [4]: Equilibrium solubility in water and buffers (saturated shake-flask, 37 °C, 24 h). The format is physicochemical. The procedure: The solubility of active pharmaceutical ingredients (API) in water and buffers with various pH values (pH 1.2–pH 7.4) was investigated to guide formulation screening. The equilibrium solubility method was performed based on the saturated shake-flask solubility technique. An excess of each API was added into volumetric flasks containing the medium and placed in a thermostatic shaking chamber (HNY-2102C, Tianjin, China) for 24 h of continuous shaking (150 r/min) at 37 °C. The supernatant was filtered through a 0.45 μm PTFE filter membrane, and then an equal amount of methanol was added to prevent API precipitation. The concentrations were quantified using HPLC. Content analysis was performed using an HPLC system (Thermo Fisher Scientific, Waltham, MA, USA) using methanol:water (88:12, v/v) as the mobile phase. The injection volume of the filtered sample was 10 µL. Separation was performed using an Agilent C18 column (4.60 mm × 250 mm, 5 μm) with a mobile-phase flow rate of 1.0 mL/min. The detection wavelength was set at 203 nm.

Data set [5] in a line: Solubility in organic solvents. The settings on record: organic solvent or mixture. The format is physicochemical. Here is the method: The solubility of NRV in organic solvents, including ethanol, propylene glycol, and ethyl acetate, was tested.
The conditions of data set [6]: cited from earlier work.
Data set [7] deals with SARS-CoV-2 Mpro. Also noted: method as in PMID 20937904. The following applies: cited from earlier work.

Values after ≈ are worked out from the molar mass of the structure shown. Where two headings read alike, the source gives them in different places. Some results are limits rather than exact numbers.

On to `CC(C)(C)[C@H](NC(=O)C(F)(F)F)C(=O)N1C[C@H]2[C@@H]([C@H]1C(=O)N[C@H](C#N)C[C@@H]1CCNC1=O)C2(C)C` [NRV, (1R,2S,5S)-N-((1S)-1-Cyano-2-((3S)-2-oxopyrrolidin-3-yl)ethyl)-3-((2S)-3,3-dimethyl-2-(2,2,2-trifluoroacetamido)butanoyl)-6,6-dimethyl-3-azabicyclo [3.1.0] hexane-2-carboxamide], for which the “Change of concentration of supersaturated solution vs original concentration” value in data set [1] (aqueous surfactant solutions, 37 °C) was “no significant alteration”. In addition, in data set [2], the “Change of solubility in the presence of poloxamer” value is recorded as “no significant change”. Besides, the “Change of solubility in the presence of HCO and Tween” value in data set [2] (p < 0.05) is given as “increased”. Besides, the “Stability under oxidative and photolytic conditions” value in data set [3] is “stable”. Besides, in data set [3], the “Stability under strongly acidic and alkaline conditions” value is reported as “hydrolytic”. Moreover, the solubility at 24 h was 983.2 ± 5.4 µg/mL (≈ 1970 µM) in data set [4] (aqueous buffer, thermodynamic from solid, pH 2.0, 37 °C, read-out: Solubility (concentration, mean ± SD)); 974.7 ± 4.8 µg/mL (≈ 1950 µM) in data set [4] (aqueous buffer, thermodynamic from solid, pH 3.8, 37 °C, read-out: Solubility (concentration, mean ± SD)); 973.5 ± 5.3 µg/mL (≈ 1950 µM) in data set [4] (aqueous buffer, thermodynamic from solid, pH 4.5, 37 °C, read-out: Solubility (concentration, mean ± SD)); 957.8 ± 7.5 µg/mL (≈ 1920 µM) in data set [4] (aqueous buffer, thermodynamic from solid, pH 6.8, 37 °C, read-out: Solubility (concentration, mean ± SD)); 998.8 ± 6.2 µg/mL (≈ 2000 µM) in data set [4] (aqueous buffer, thermodynamic from solid, pH 7.4, 37 °C, read-out: Solubility (concentration, mean ± SD)); 950 to 1000 µg/mL (≈ 1900 to 2000 µM) in data set [4] (buffers pH 1.2–8.0, read-out: Solubility in each buffer). Also, the solubility at 24 h came to 997.7 ± 6.5 µg/mL (≈ 2000 µM) in data set [4] (thermodynamic from solid, pH 1.2, 37 °C, read-out: Solubility (concentration, mean ± SD)) and 953.1 ± 7.6 µg/mL (≈ 1910 µM) in data set [4] (water, 37 °C, read-out: Solubility in water). Also, the solubility in data set [5] (ethanol, read-out: Solubility in ethanol (crude concentration)) was 16500 to 33000 µg/mL (≈ 33000 to 66100 µM); in data set [5] (ethyl acetate, read-out: Solubility in ethyl acetate (crude concentration)), > 57000 µg/mL; in data set [5] (propylene glycol, read-out: Solubility in propylene glycol (crude concentration)), < 1600 µg/mL. Besides, the BCS class result in data set [6] is recorded as “II/IV”. Moreover, in data set [6] (predictive, ref 1–3 (supplement)), the “Logp (Table S1)” value was 0.845. The “BCS classification (Table S1)” value in data set [6] (ref 1–3 (supplement)) is listed as “BCS II / IV”. Moreover, the “Solubility in words (Table S1)” value in data set [6] (ref 1–3 (supplement)) is “low solubility in water and buffered aqueous media”.

Consider `CC(C)c1nc(CN(C)C(=O)N[C@H](C(=O)N[C@@H](Cc2ccccc2)C[C@H](O)[C@H](Cc2ccccc2)NC(=O)OCc2cncs2)C(C)C)cs1` [RTV, 10-Hydroxy-2-methyl-5-(1-methylethyl)-1-[2-(1methylethyl)-4-thiazolyl]-3,6-dioxo-8,11-bis(phenylmethyl)-2,4,7,12-tetraazatridecan-13-oic acid, 5-thiazolylmethyl ester, [5S-(5R*,8R*,10R*,11R*)]], for which the “Activity against SARS-CoV-2 Mpro” value in data set [7] is “inactive”. The “Concentration of supersaturated solution during the experimental period” value in data set [1] (with HCO and Tween, p < 0.001 vs no surfactant) was “effectively sustained”. Moreover, the “BCS classification (Table S1)” value in data set [6] (ref 1–3 (supplement)) is reported as “BCS II”.

The record behind these values is PMC10818454, “The Development of an Oral Solution Containing Nirmatrelvir and Ritonavir and Assessment of Its Pharmacokinetics and Stability” (Pharmaceutics, 2024).
